Columns and labels:
[1] = tested on: BUD-8 skin cell fibroblasts; assay: Proliferation of BUD-8 skin cell fibroblasts (3H-thymidine uptake); type: cell-based, human; conditions: for 3H-Thymidine uptake by BUD-8 skin cells: triplicates ± SD
Experimental: The human skin cell fibroblast line, BUD-8, was originally derived from the normal skin of a person and can now be obtained from the American Type Culture Collection.
The number of BUD-8 cells was expanded for use by culture in 25 cm^2 flasks at 37° C. in an atmosphere of 5% CO2 in air. At approximately 4-5 five day intervals, or when confluence was reached, the cells were passaged. This was accomplished by detaching the cells with a Teflon scraper, washing and reseeding the cells at a lower density into fresh tissue culture flasks.
The effect of these compound on the proliferative capacity of human BUD-8 skin fibroblasts was measured with the use of a ^3 H-thymidine incorporation assay using culture conditions which were similar to those used for the Con-A blastogenesis assay, described previously. Cultured skin cells were detached from the surface of tissue culture flasks mechanically with a Teflon scraper. The cells were washed, resuspended in incubation medium and the viabilities were determined. These cells were then plated in triplicate at a density of 2×10^3 cells/0.1 ml/microtiter well for the proliferation assays. […] Eighteen hours later, each of the BUD-8 cultures was examined morphologically for evidence of compound-induced toxicity such as cell rounding or granularity. The thymidine-pulsed cells were then precipitated and the amount of ^3 H-thymidine incorporation was counted in a liquid scintillation counter. […]
^a Experimental compounds were first suspended in DMSO or ethanol,
^b The effect of experimental compounds on the proliferation of BUD8

[2] = tested on: normal spleen cells / splenic T-lymphocytes (Con-A stimulated); conditions: THERAFECTIN comparison; cited from earlier work
[3] = in vivo; cited from earlier work

With `CCCCCCCOC1C(C(C)O)OC2OC(C)(C)OC21` [Ex. 3, 1,2-O-Isopropylidene-3-O-(n-heptyl)-6-deoxy-α,D-glucofuranose] the “anti-proliferative effect on skin cells” value [1] was “anti-proliferative effect that was statistically significant”, the inhibition at 1 µg/mL ([1]; Homo sapiens, Fibroblast, compound 1 ug/ml, percent change from no compound, read-out: 3H-Thymidine uptake by BUD-8 skin cells, % effect) was 58% and the inhibition at 10 µg/mL ([1]; Homo sapiens, Fibroblast, compound 10 ug/ml, percent change from no compound, read-out: 3H-Thymidine uptake by BUD-8 skin cells, % effect) was 49%. The inhibition at 25 µg/mL ([1]; Homo sapiens, Fibroblast, compound 25 ug/ml, percent change from no compound, read-out: 3H-Thymidine uptake by BUD-8 skin cells, % effect) was 19%, the inhibition at 100 µg/mL ([1]; Homo sapiens, Fibroblast, compound 100 ug/ml, percent change from no compound, read-out: 3H-Thymidine uptake by BUD-8 skin cells, % effect) was 30% and the inhibition at 300 µg/mL ([1]; Homo sapiens, Fibroblast, compound 300 ug/ml, percent change from no compound, read-out: 3H-Thymidine uptake by BUD-8 skin cells, % effect) was 66%. The inhibition at 750 µg/mL ([1]; Homo sapiens, Fibroblast, compound 750 ug/ml, percent change from no compound, read-out: 3H-Thymidine uptake by BUD-8 skin cells, % effect) was 43%, the “3H-Thymidine uptake by BUD-8 skin cells” value ([1]; compound 1 ug/ml) was 2,589 ± 202 cpm and the “3H-Thymidine uptake by BUD-8 skin cells” value ([1]; compound 10 ug/ml) was 3,139 ± 232 cpm. For the same compound, the “3H-Thymidine uptake by BUD-8 skin cells” value ([1]; compound 25 ug/ml) was 4,978 ± 632 cpm, the “3H-Thymidine uptake by BUD-8 skin cells” value ([1]; compound 100 ug/ml) was 4,288 ± 723 cpm and the “3H-Thymidine uptake by BUD-8 skin cells” value ([1]; compound 300 ug/ml) was 2,067 ± 302 cpm. For the same compound, the “3H-Thymidine uptake by BUD-8 skin cells” value ([1]; compound 750 ug/ml) was 3,496 ± 1,084 cpm.

In the case of `CN(C)CCCO[C@@H]1[C@H]2OC(C)(C)O[C@H]2O[C@@H]1[C@H](O)CO` [THERAFECTIN, 1,2-O-Isopropylidene-3-O-3('N,N'-dimethylamino-n-propyl)-α,D-glucofuranose], the “usual concentration for significant inhibition” value [2] is listed as 1,000 ug/ml, the toxicity [3] is listed as “little toxicity” and the “utility in rheumatoid arthritis” value [3] is listed as “demonstrated utility in managing the signs and symptoms of rheumatoid arthritis”.
